Results reported in ChEMBL document CHEMBL1156096, “Synthesis and antitubercular activity of 7-chloro-4-quinolinylhydrazones derivatives” (Bioorg Med Chem Lett, 2009).
≈ marks a conversion by molar mass, not a printed value.

Tests used:
[1] = tested on: Mycobacterium tuberculosis; experiment: Antimycobacterial activity against Mycobacterium tuberculosis H37Rv ATCC 27294 by microplate alamar blue assay; assay type: functional
[2] = Cytotoxicity against mouse J774 cells assessed as cell viability at 1 ug/ml by MTT assay; assay type: cell-based; settings: read-out: Activity
[3] = Cytotoxicity against mouse J774 cells infected with Mycobacterium bovis BCG assessed as cell viability at 100 ug/ml by MTT assay; assay type: cell-based; settings: read-out: Activity
[4] = Cytotoxicity against mouse J774 cells infected with Mycobacterium bovis BCG assessed as cell viability at 1 ug/ml by MTT assay; assay type: cell-based; settings: read-out: Activity
[5] = Cytotoxicity against mouse J774 cells assessed as cell viability at 10 ug/ml by MTT assay; assay type: cell-based; settings: read-out: Activity
[6] = Cytotoxicity against mouse J774 cells infected with Mycobacterium bovis BCG assessed as cell viability at 10 ug/ml by MTT assay; assay type: cell-based; settings: read-out: Activity
[7] = Cytotoxicity against mouse J774 cells assessed as cell viability at 100 ug/ml by MTT assay; assay type: cell-based; settings: read-out: Activity

SMILES	MIC [1] [µg/mL]	further results
O=[N+]([O-])c1ccccc1/C=N/Nc1ccnc2cc(Cl)ccc12	> 100	–
Clc1ccc2c(N/N=C/c3ccccc3Br)ccnc2c1	> 100	–
Clc1ccc2c(N/N=C/c3ccc(Br)cc3)ccnc2c1	2.5 (≈ 6.93 µM)	viability at 1 ug/ml [2]: 100%; viability at 100 ug/ml [3]: 85%; viability at 1 ug/ml [4]: 100%; viability at 10 ug/ml [5]: 100%; viability at 10 ug/ml [6]: 100%; viability at 100 ug/ml [7]: 91%
N#Cc1ccc(/C=N/Nc2ccnc3cc(Cl)ccc23)cc1	> 100	–
O=[N+]([O-])c1cccc(/C=N/Nc2ccnc3cc(Cl)ccc23)c1	> 100	–
O=[N+]([O-])c1ccc(/C=N/Nc2ccnc3cc(Cl)ccc23)cc1	> 100	–
Fc1cccc(/C=N/Nc2ccnc3cc(Cl)ccc23)c1	> 100	–
Clc1ccc2c(N/N=C/c3cccc(Br)c3)ccnc2c1	3.12 (≈ 8.65 µM)	viability at 1 ug/ml [2]: 88%; viability at 10 ug/ml [5]: 60%; viability at 100 ug/ml [7]: 3%
Clc1ccc2c(N/N=C/c3ccccc3)ccnc2c1	> 100	–
Oc1cccc(/C=N/Nc2ccnc3cc(Cl)ccc23)c1	> 100	–
CC[C@@H](CO)NCCN[C@@H](CC)CO [ETHAMBUTOL]	3.25 (≈ 15.9 µM)	viability at 1 ug/ml [2]: 100%
